Source: publication PMC6691761, “Potential multifunctional agents with anti-hepatoma and anti-inflammation properties by inhibiting NF-кB activation” (Journal of Enzyme Inhibition and Medicinal Chemistry, 2019)

Key:
[1] = system: human breast cancer cells (MCF-7); assay: Cytotoxicity, MTT assay, MCF-7; format: cell-based; conditions: for IC50: MTT, 24 h; for MCF-7 SI (selectivity index): quotient of IC50 towards LO2 cells
Excerpt: (§1) Compounds 83–102 were screened against human neoplastic cell lines, such as human breast cancer cells (MCF-7), human colon cancer cells (HCT116), human lung carcinoma cells (A549), human gastric adenocarcinoma cells (SGC7901), human liver hepatocellular carcinoma cell line (HepG2), human cervical carcinoma cells (HeLa), human acute mononuclear granulocyte leukaemia (THP-1), and human normal hepatic cell line (LO2) using modified MTT assay. All the cells were obtained from the American Type Culture Collection (ATCC, Manassas, VA). The cells were cultured in DMEM or 1640. Positive controls (Doxorubicin (DOX) and Curcumin) and BAPs were initially dissolved in dimethyl sulphoxide (DMSO). Experimental concentration of DMSO was always 0.1% (v/v). The concentrations of BAPs and positive controls were 50, 20, 10, 5, 2.5, 1, 0.5, 0.1, 0.05, and 0.01 μg/mL.
(§2) The cells (1 × 10^4 cells/well) were seeded in a 96-well plate and incubated for 24 h. Cells treated with serial concentrations of drugs were incubated for another 24 h. After the media removed, 20 μL of MTT (5 mg/mL) solution was added and incubated for 4 h at 37 °C. The MTT solution was removed and then 150 μL of DMSO was added. The optical density was measured with a multi-well plate reader (TECAN, Mӓnnedorf, Switzerland) at 570 nm. The results are expressed as a decrease in the cell viability (%) in comparison to untreated controls. The concentration of each compound was examined in triplicate, and the IC50 values are expressed in Table 1.

[2] = system: human colon cancer cells (HCT116); assay: Cytotoxicity, MTT assay, HCT116; format: cell-based; conditions: for IC50: MTT, 24 h; for HCT116 SI (selectivity index): quotient of IC50 towards LO2 cells
Excerpt: as §1, §2

[3] = system: human lung carcinoma cells (A549); assay: Cytotoxicity, MTT assay, A549; format: cell-based; conditions: for IC50: MTT, 24 h; for A549 SI (selectivity index): quotient of IC50 towards LO2 cells
Excerpt: as §1, §2

[4] = system: human gastric adenocarcinoma cells (SGC7901); assay: Cytotoxicity, MTT assay, SGC7901; format: cell-based; conditions: for IC50: MTT, 24 h; for SGC7901 SI (selectivity index): quotient of IC50 towards LO2 cells
Excerpt: as §1, §2

[5] = system: human liver hepatocellular carcinoma cell line (HepG2); assay: Cytotoxicity, MTT assay, HepG2; format: cell-based; conditions: for IC50: MTT, 24 h; for HepG2 SI (selectivity index): quotient of IC50 towards LO2 cells
Excerpt: as §1, §2

[6] = system: human cervical carcinoma cells (HeLa); assay: Cytotoxicity, MTT assay, HeLa; format: cell-based; conditions: for IC50: MTT, 24 h; for HeLa SI (selectivity index): quotient of IC50 towards LO2 cells
Excerpt: as §1, §2

[7] = system: human acute mononuclear granulocyte leukaemia (THP-1); assay: Cytotoxicity, MTT assay, THP-1; format: cell-based; conditions: for IC50: MTT, 24 h; for THP-1 SI (selectivity index): quotient of IC50 towards LO2 cells
Excerpt: as §1, §2

[8] = system: human normal hepatic cell line (LO2); assay: Toxicity to normal cells, MTT assay, LO2; format: cell-based; conditions: 24 h
Excerpt: as §1, §2

[9] = system: TNF-α production in LPS-stimulated RAW264.7 cells; assay: TNF-α production in LPS-stimulated RAW264.7 cells, ELISA; format: cell-based
Description: The anti-inflammatory activities of BAPs were evaluated by ELISA. After pretreated with 30 μM of positive drug pyrrolidinedithiocarbamate (PDTC) or 6 μM of BAPs for 2 h, cells were treated with LPS (1.0 μg/mL) for 22 h. The culture media were collected and centrifuged for detecting the expression levels of TNF-α by an ELISA kit (eBioScience, San Diego, CA).
TNF-α is a common pro-inflammatory factors that can be produced by LPS-stimulated RAW264.7 macrophage[14]^,[24]. In order to evaluate the anti-inflammatory activity of BAPs, the effect of BAPs on TNF-α production in LPS-stimulated RAW264.7 cells was detected by ELISA. […] Only 92 presented slightly lower expression of TNF-α secretion (about 57%).

[10] = system: HepG2 xenografts; assay: HepG2 xenografts growth in nude mice; format: in vivo, Balb/c nude mice; conditions: 1.0 mg/kg intraperitoneally every 2 d for 20 days
Description: (§3) The HepG2 cells xenografts were established using the Balb/c nude mice (female, 7-week-old, 17–19 g, n = 30) (Shanghai Laboratory Animal Center, Shanghai Shi, China) were used to investigate the anti-hepatoma effect of 96. Animal experiments were reviewed and approved by the Binzhou Medical University Experimental Animal Committee. Briefly, HepG2 cells (1 × 10^7/0.2 ml PBS/mouse) were inoculated subcutaneously. Three days after the inoculation, the mice were randomly divided into five groups: the saline treated group (Control), 96 (0.2 mg/kg) group, 96 (1.0 mg/kg) treated group, 96 (5.0 mg/kg) treated group, and DOX (1.0 mg/kg) treated group. 96 were dissolved in saline containing 1% of DMSO and administered intraperitoneally every 2 d for 20 days. DOX was also administered intraperitoneally every 2 d for 20 d. The body weight and HepG2 xenografts volumes were recorded from the day of treatment, and xenografts volumes were calculated using the equation: tumour volume = length×(width)[2]×π/6. At the end of the experiment, mice were sacrificed and the xenografts were obtained for western blotting, HE staining and immunohistochemistry staining.

[11] = system: HepG2 xenografts; assay: HE staining of HepG2 xenografts; format: in vivo, Balb/c nude mice
Description: as §3
The HepG2 xenografts tissues were embedded using the paraffin, and sectioned for HE staining and immunohistochemistry staining. HE staining was performed routinely. The immunohistochemistry staining carried out as following. Briefly, the processed sections were incubated with the primary antibodies: Bcl-2 and TNF-α (NOVUS BIOLOGICALS) at 4 °C overnight. After washing, the anti-rabbit peroxidase-conjugated secondary antibody (Sigma-Aldrich, St. Louis, MO) was incubated for 1 h at RT. After washing with PBS, the cells were visualized using the 3,3'-diaminobenzidine (DAB) solution under the light microscope. The cell images were taken using a light microscopy (Olympus, Tokyo, Japan).

[12] = system: Bcl-2 expression in HepG2 xenografts; assay: Immunohistochemistry staining of Bcl-2 in HepG2 xenografts; format: in vivo, Balb/c nude mice; conditions: 96 5.0 mg/kg, DOX 1.0 mg/kg, versus model group
Description: as §3
(§4) The HepG2 xenografts tissues were embedded using the paraffin, and sectioned for HE staining and immunohistochemistry staining. HE staining was performed routinely. The immunohistochemistry staining carried out as following. […]

[13] = system: TNF-α expression in HepG2 xenografts; assay: Immunohistochemistry staining of TNF-α in HepG2 xenografts; format: in vivo, Balb/c nude mice; conditions: 96 5.0 mg/kg, DOX 1.0 mg/kg, versus model group
Description: as §3, §4

[14] = BAPs 6.0 μM, PDTC 30 μM, LPS 1.0 μg/mL

Row | SMILES | IC50 ([1]; Homo sapiens, MCF7) [µM] | MCF-7 SI (selectivity index) [1] | IC50 ([2]; Homo sapiens, HCT-116) [µM] | IC50 ([3]; Homo sapiens, A549, 24 h) [µM] | A549 SI (selectivity index) [3] | IC50 ([4]; Homo sapiens, SGC-7901) [µM] | SGC7901 SI (selectivity index) [4] | IC50 ([5]; Homo sapiens, HepG2, 24 h) [µM] | IC50 [1] [µM] | IC50 [2] [µM] | HCT116 SI (selectivity index) [2] | IC50 [3] [µM] | IC50 [4] [µM] | IC50 [5] [µM] | HepG2 SI (selectivity index) [5] | IC50 [6] [µM] | HeLa SI (selectivity index) [6] | IC50 [7] [µM] | THP-1 SI (selectivity index) [7] | IC50 [8] [µM] | other results
1 | CN1C/C(=C\c2cccc(N)c2)C(=O)/C(=C/c2ccccc2F)C1 [Compound 92, (3E,5E)-3-(3-aminobenzylidene)-5-(2-fluorobenzylidene)-1-methylpiperidin-4-one] | 2.8 ± 0.3 | 6.8 | 3.1 ± 0.3 | 2.2 ± 0.1 | 8.6 | 2.8 ± 0.2 | 6.8 | 1.1 ± 0.1 |  |  |  |  |  |  |  |  |  |  |  |  | IC50 ([6]; Homo sapiens, HeLa): 2.5 ± 0.2 µM; IC50 ([7]; Homo sapiens, THP-1, 24 h): 1.2 ± 0.2 µM; IC50 ([8]; Homo sapiens): 18.9 ± 0.7 µM; TNF-α secretion (percent of LPS control) ([9]; 6.0 μM, 2 h pretreatment, LPS 1.0 μg/mL 22 h, ELISA): about 57%
2 | CN1CC(=Cc2cccc(N=Cc3cc(F)ccc3O)c2)C(=O)C(=Cc2ccccc2F)C1 [Compound 93] |  | 4.0 |  |  | 4.1 |  | 5.4 |  | 3.8 ± 0.9 | 2.5 ± 1.8 | 6.0 | 3.7 ± 0.1 | 2.8 ± 0.5 | 2.2 ± 0.2 | 6.9 | 3 ± 0.1 | 5.0 | 2.4 ± 0.5 | 6.3 | 15.1 ± 0.7 | Inhibition of TNF-α secretion compared with PDTC (in words) [9, 14]: superior to PDTC group; TNF-α secretion [9, 14]: 45%
3 | CN1CC(=Cc2cccc(N=Cc3cc([N+](=O)[O-])ccc3F)c2)C(=O)C(=Cc2ccccc2F)C1 [Compound 97] |  | 1.1 |  |  | 2.1 |  | 3.5 |  | 10.7 ± 0.1 | 11.7 ± 0.2 | 1.0 | 5.7 ± 0.4 | 3.4 ± 0.8 | 4.2 ± 0.5 | 2.8 | 5.1 ± 1.2 | 2.3 | 8.1 ± 0.4 | 1.5 | 11.8 ± 0.4 | TNF-α secretion [9, 14]: 45%
4 | CN1CC(=Cc2cccc(N=Cc3ccc(O)c(O)c3O)c2)C(=O)C(=Cc2ccccc2F)C1 [Compound 100] |  | 2.6 |  |  | 10.4 |  | 5.5 |  | 7.7 ± 0.2 | 11.9 ± 0.1 | 1.7 | 1.9 ± 0.2 | 3.6 ± 0.1 | 8.8 ± 0.4 | 2.3 | 11.9 ± 0.2 | 1.7 | 7.7 ± 0.1 | 2.6 | 19.8 ± 0.3 | TNF-α secretion [9, 14]: 45%
5 | COc1cc(Br)c(O)c(C=Nc2cccc(C=C3CN(C)CC(=Cc4ccccc4F)C3=O)c2)c1 [Compound 102] |  | 1.0 |  |  | 1.1 |  | 2.1 |  | 15.5 ± 1.2 | 18.1 ± 1.9 | 0.8 | 13.4 ± 0.7 | 7 ± 0.4 | 5.9 ± 0.1 | 2.5 | 9.1 ± 0.2 | 1.6 | 5 ± 0.2 | 3.0 | 14.8 ± 0.1 | 
6 | COc1cc(/C=C/C(=O)CC(=O)/C=C/c2ccc(O)c(OC)c2)ccc1O [Curcumin, reference compound] | 20.5 ± 0.2 | 1.4 | 17.2 ± 0.3 | 22.7 ± 1 | 1.2 | 22.8 ± 0.6 | 1.2 | 20.7 ± 0.1 |  |  | 1.6 |  |  |  | 1.4 |  | 1.5 |  | 1.4 |  | IC50 ([6]; Homo sapiens, HeLa): 19.4 ± 0.6 µM; IC50 ([7]; Homo sapiens, THP-1, 24 h): 20.8 ± 0.6 µM; IC50 ([8]; Homo sapiens): 28.3 ± 1.2 µM
7 | COc1cccc2c1C(=O)c1c(O)c3c(c(O)c1C2=O)C[C@@](O)(C(=O)CO)C[C@@H]3O[C@H]1C[C@H](N)[C@H](O)[C@H](C)O1 [DOX, Doxorubicin, reference compound] | 2.8 ± 0.7 | 1.7 | 3.5 ± 0.1 | 3.4 ± 0.4 | 1.4 | 3.3 ± 0.5 | 1.4 | 1.2 ± 0.1 |  |  | 1.3 |  |  |  | 3.9 |  | 0.7 |  | 0.5 |  | IC50 ([6]; Homo sapiens, HeLa): 7 ± 0.3 µM; IC50 ([7]; Homo sapiens, THP-1, 24 h): 9.5 ± 0.8 µM; IC50 ([8]; Homo sapiens): 4.7 ± 0.7 µM; Growth of HepG2 xenografts [10]: significantly inhibited the growth of HepG2 xenografts; Fracted cells, HE staining ([11]; 96 5.0 mg/kg, DOX 1.0 mg/kg): a plenty of fracted cells; Histopathological change of cell nucleus, HE staining ([11]; HepG2 xenografts, versus model group): made the HepG2 cell nucleus wrinkled; Bcl-2 expression, immunohistochemistry [12]: significantly reduced; TNF-α expression, immunohistochemistry [13]: significantly reduced
